In US20250188080A1, “IMIDAZOLONYLQUINOLINE COMPOUNDS AND THERAPEUTIC USES THEREOF” (Merck Patent GmbH, priority 2019, published 2025):
pIC50: −log10 of the molar value.

Experiments:
[1] = system: pCHK2 (Cellular mechanistic ATM, HCT-116); assay: Cellular pCHK2 assay (bleomycin-induced phospho-Thr68 CHK2); type: cell-based, human
Text: For the identification of substances which inhibit the phosphorylation of the protein kinase CHK2 (checkpoint kinase 2) at the amino acid threonine 68, an immunofluorescence-based “high content” analysis assay was used in HCT116 cells. In vitro cell-based immunofluorescence assay for the identification of inhibitors of bleomycin-induced phosphorylation of CHK2 (phospho-Thr68) in the human colon carcinoma cell line HCT116: HCT116 cells are sown out in a defined cell density in 384-well plates in culture medium (DMEM high glucose, 2 mM GlutaMax, 1 mM Na pyruvate, 10% FCS) and incubated overnight at 37° C. and 10% of CO2. On the following day, the test substances are added in a defined concentration range (1 nM to 30 μM) in combination with 10 μM bleomycin, where the concentration of the solvent DMSO is kept constant at 0.5%. After incubation for four hours at 37° C. and 10% of CO2, the cells are fixed (5 min, 4% formaldehyde in PBS), permeabilised (10 min, 0.2% Triton X-100 in PBS) and, after blocking of nonspecific binding sites (10% goat serum, 1% BSA in PBS), incubated overnight at 4° C. with a specific anti-pCHK2 antibody (cell signaling #2661). pCHK2 (Thr68) is determined using an Alexa488-labelled secondary anti-rabbit IgG antibody. Parallel staining of DNA with propidium iodide enables determination of the cell count. The pCHK2 signal is detected using a high-content imager (Molecular Devices IMX Ultra) and automatic image analysis using the MetaXpress software belonging to the instrument. The number of cell nuclei which have a pCHK2 signal above a defined background is determined.

[2] = Microsomal stability (intrinsic clearance), rat; type: in vitro ADME; conditions: for microsomal CLint: liver microsomes
Text: A microsomal stability assay is used to measure in vitro clearance (Clint). The assay involves measuring the rate of disappearance of a compound due to its intrinsic attitude to be metabolized (“intrinsic” meaning that the disappearance is not affected by other properties like permeability, binding etc. that play a role when quantifying in vivo clearance). The microsomal stability (intrinsic clearance, Clint) and, thus, metabolic stability is generally given as μl/min/mg protein. It can be visualized as the volume of solution that 1 mg of microsomes is able to clear of the compound in one minute. The microsomal/metabolic stability of each compound was determined by measurement of the change in LC-MS/MS peak area over time. Data are fitted according to a log linear model in line with Michaelis/Menten. The Clint value is calculated from the slope (k) of the linear log transformed concentration per time plot divided by the amount of microsomes (0.5 mg/ml): Clint (μl/min/mg protein)=k*1000/protein concentration. Assay Explorer software was used to automatically calculate the slope k of the decline.

[3] = biological target: human phosphodiesterase-2A1 (Homo sapiens, UniProt O00408); assay: PDE2A1 assay (Cerep); type: biochemical
Method: A commercially available assay was used (Cerep, catalog ref. 4071, SOP no 1C1054), which is designed to evaluate the effects of compounds on the activity of the human phosphodiesterase-2A1 quantified by measuring the formation of 5′AMP from cAMP using a human recombinant enzyme expressed in Sf9 cells.
The test compound, reference compound or water (control) are added to a buffer containing 40 mM Tris/HCl (pH 7.4), 8 mM MgCl2 and 1.7 mM EGTA/NaOH, 1.8 μM cAMP and 1 μCi [^3H]cAMP.
Thereafter, the reaction is initiated by addition of the enzyme (about 2.5 U) and the mixture is incubated for 20 min at 22° C.
For basal control measurements, the enzyme is omitted from the reaction mixture.
Following incubation SPA beads are added.
After 30 min at 22° C. under shaking, the amount of [^3H]5′AMP is quantified with a scintillation counter (Topcount, Packard).
The results are expressed as a percent inhibition of the control enzyme activity.
The standard inhibitory reference compound is EHNA (erythro-9-(2-hydroxy-3-nonyl) adenine), which is tested in each experiment at several concentrations to obtain an inhibition curve from which its IC50 value is calculated.

[4] = biological target: DNA-PK protein complex (Homo sapiens, UniProt P78527); assay: DNA-PK assay (HTRF); type: biochemical
Method: The kinase assay was performed as HTRF® based 384-well assay. In a first step DNA-PK protein complex was incubated with or without test compound for 15 min at 22° C. After addition of the STK-substrate 1-biotin (Cisbio), Mg-ATP, DNA and staurosporine the reaction mixture was incubated for 60-80 min (depending on activity of DNA-PK protein complex) at 22° C. An Echo 555 (Labcyte) was used for dispensing of compound solutions. The assay buffer consisted of 25 mM HEPES PH 7.4, 11 mM MgCl2, 80 mM KCl, 0.45 mM EDTA, and 0.5 mM EGTA, and contained 1 mM dithiothreitol (DTT), 0.17% BSA, and 0.01% Tween® 20. The pharmacologically relevant volume was 5 μl. The final concentrations in the assay during incubation of the reaction mixture were 50-100 ng/well DNA-PK protein complex (depending on activity of DNA-PK protein complex), 1 μM STK-substrate 1-biotin, 10 μM Mg-ATP, 80 ng/well DNA from calf thymus, and 1 μM staurosporine. The enzymatic reaction was stopped by addition of EDTA. The generation of phosphorylated STK-substrate 1-biotin as result of the DNA-PK mediated reaction was detected via a specific anti-phospho STK-antibody (Cisbio) labeled with Europium (Eu) as donor and streptavidin labeled with XL665 (Cisbio) as acceptor allowing FRET. For this purpose, 4 μl of antibody- and streptavidin-containing stop solution (12.5 mM HEPES pH 8.0, 125 mM EDTA, 30 mM sodium chloride, 300 mM potassium fluoride, 0.006% Tween-20, 0.005% Brij® 35, 0.179 nM anti-phospho-STK antibody, 160 nM Streptavidin-XL665) were added to the reaction mixture. Following signal development for 1 h the plates were analyzed on a Rubystar or Pherastar microplate reader (BMG Labtech). The amount of phosphorylated substrate was directly proportional to the ratio of fluorescence units (excitation wavelength 337 nm) at the emission wavelengths 665 nm (Phosphopeptide-sensitive wavelength/emission of XL665) to the units at 620 nm (reference wavelength Europium). IC50-values were calculated using Genedata Screener® software. […]

SMILES	pIC50 ([1]; HCT-116, 10 μM bleomycin)	CLint (rat) ([2]; rat microsomes)	pIC50 [3]	pIC50 [4]	microsomal CLint [2]	pIC50 ([1]; Homo sapiens, HCT-116, HCT-116, 10 μM bleomycin)
COc1cc2ncc3c(c2cc1-c1cn(C)nc1C)n(-c1c(F)cncc1OC)c(=O)n3C (single isomer, unassigned) [Compound 2, 8-(1,3-Dimethyl-1H-pyrazol-4-yl)-1-(Ra)-(3-fluoro-5-methoxy-pyridin-4-yl)-7-methoxy-3-methyl-1,3-dihydro-imidazo[4,5-c]quinolin-2-one]	7.12	< 10 μl/min/mg protein	5.41	5.89		
COc1cc2ncc3c(c2cc1-c1cn(C)nc1C)n(-c1c(F)cncc1OC)c(=O)n3C (single isomer, unassigned) [Compound 1, 8-(1,3-Dimethyl-1H-pyrazol-4-yl)-1-(Sa)-(3-fluoro-5-methoxy-pyridin-4-yl)-7-methoxy-3-methyl-1,3-dihydro-imidazo[4,5-c]quinolin-2-one]	7.89		5.66	6.22	< 10 µL/min/mg	
COc1cc2ncc3c(c2cc1-c1cn(C)nc1C)n(-c1c(F)cncc1OC)c(=O)n3C [Compound Y, 8-(1,3-dimethyl-1H-pyrazol-4-yl)-1-(3-fluoro-5-methoxypyridin-4-yl)-7-methoxy-3-methyl-1,3-dihydroimidazo[4,5-c]quinolin-2-one, reference compound]			5.85	6.01	19 µL/min/mg	7.07
